The text below walks through data of patent US6608086B2, “Dihydropyridines and new uses thereof” (Synaptic Pharmaceutical Corporation, priority 1993, dated 2003).

One test addresses T1, α2B receptor (Homo sapiens, UniProt P18089).
T1 construct: host or cells: LM(tk-) cells, line L-NGC-α2B
T1 sequence (P18089 1-450): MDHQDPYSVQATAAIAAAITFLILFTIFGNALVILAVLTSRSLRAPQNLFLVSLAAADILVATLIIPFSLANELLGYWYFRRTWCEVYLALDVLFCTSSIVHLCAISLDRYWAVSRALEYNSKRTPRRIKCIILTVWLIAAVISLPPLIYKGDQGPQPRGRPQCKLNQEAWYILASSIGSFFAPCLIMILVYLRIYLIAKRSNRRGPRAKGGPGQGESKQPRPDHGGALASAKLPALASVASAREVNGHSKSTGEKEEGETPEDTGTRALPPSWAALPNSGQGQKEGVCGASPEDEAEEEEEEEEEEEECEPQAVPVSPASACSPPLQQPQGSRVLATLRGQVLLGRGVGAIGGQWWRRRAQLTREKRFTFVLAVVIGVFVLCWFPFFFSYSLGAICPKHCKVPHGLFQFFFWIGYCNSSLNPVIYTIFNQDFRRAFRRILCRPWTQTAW
Kind of test: Competition binding, [3H]rauwolscine, human α2B receptor. In a few lines: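 Cell lysates from stably transfected LM(tk−) lines are resuspended in 25 mM glycylglycine (pH 7.6 at room temperature), incubated to equilibrium with 0.5 nM [3H]rauwolscine plus competitor, then filtered through GF/B filters; 10 μM phentolamine defines nonspecific binding.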

The target of test [1] is T2, α1B Human Adrenergic Receptor (Homo sapiens, UniProt P35368).
T2 construct: The entire coding region of α1B (1563 bp); expressed in transfected cells
T2 sequence (P35368 1-520): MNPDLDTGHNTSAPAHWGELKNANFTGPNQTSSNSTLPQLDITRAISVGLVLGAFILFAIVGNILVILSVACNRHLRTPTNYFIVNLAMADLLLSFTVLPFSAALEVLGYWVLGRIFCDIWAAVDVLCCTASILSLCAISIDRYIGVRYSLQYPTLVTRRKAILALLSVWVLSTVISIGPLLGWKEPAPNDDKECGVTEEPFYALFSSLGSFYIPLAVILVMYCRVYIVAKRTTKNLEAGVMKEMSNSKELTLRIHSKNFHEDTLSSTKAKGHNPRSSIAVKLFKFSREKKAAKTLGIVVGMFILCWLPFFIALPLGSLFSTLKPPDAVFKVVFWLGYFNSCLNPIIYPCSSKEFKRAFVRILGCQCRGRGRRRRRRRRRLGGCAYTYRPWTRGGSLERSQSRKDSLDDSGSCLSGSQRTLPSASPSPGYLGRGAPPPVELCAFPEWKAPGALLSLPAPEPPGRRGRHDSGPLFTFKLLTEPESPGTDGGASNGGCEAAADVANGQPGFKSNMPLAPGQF
Kind of test: Radioligand binding, [3H]prazosin, cloned human α1B adrenergic receptor. A digest of the protocol: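 Membranes from stably transfected LM(tk−) cells, resuspended in 50 mM Tris-HCl, 1 mM MgCl2, 0.1% ascorbic acid, pH 7.5, were incubated with 0.5 nM [3H]prazosin for 20 min at 37° C. Nonspecific binding defined with 10 μM phentolamine; bound ligand separated by GF/B filtration.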

Test [2] deals with T3, α1C Human Adrenergic Receptor (Homo sapiens, UniProt P35348).
T3 construct: The entire coding region of α1C (1401 bp); expressed in transfected cells
T3 sequence (P35348 1-466): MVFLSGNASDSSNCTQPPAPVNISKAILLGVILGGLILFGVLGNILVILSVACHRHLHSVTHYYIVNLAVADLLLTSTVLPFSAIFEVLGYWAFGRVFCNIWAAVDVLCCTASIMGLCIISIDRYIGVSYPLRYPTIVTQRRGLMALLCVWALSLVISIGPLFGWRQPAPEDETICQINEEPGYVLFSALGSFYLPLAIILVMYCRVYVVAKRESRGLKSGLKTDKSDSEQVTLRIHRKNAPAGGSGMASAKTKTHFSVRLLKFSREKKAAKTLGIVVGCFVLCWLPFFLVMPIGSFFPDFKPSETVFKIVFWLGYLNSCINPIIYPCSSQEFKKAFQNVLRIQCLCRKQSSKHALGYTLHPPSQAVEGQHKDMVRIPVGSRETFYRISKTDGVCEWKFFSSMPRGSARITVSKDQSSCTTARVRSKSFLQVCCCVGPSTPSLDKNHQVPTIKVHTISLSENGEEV
Description: Radioligand binding, [3H]prazosin, cloned human α1C adrenergic receptor. In a few lines: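 LM(tk−) membranes (stable human α1C); [3H]prazosin 0.5 nM; 37° C., 20 min; Tris-HCl 50 mM/MgCl2 1 mM/ascorbate 0.1%, pH 7.5; NSB 10 μM phentolamine; GF/B filtration.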

[3] abbreviates: [3H]rauwolscine, LM(tk-) cell line L-NGC-α2B, SEM and n in lines below, read-out: pKi alpha-2 2b (converted).
[4] abbreviates: cloned human receptor in LM(tk-) cell membranes, SEM and n in lines below, read-out: pKi alpha-1 1b (converted).
Setting [5] is: cloned human receptor in LM(tk-) cell membranes, SEM and n in lines below, read-out: pKi alpha-1 1c (converted).
[6] abbreviates: cloned human receptor, LM(tk-) cell membranes, mean, read-out: PKi alpha-1 1b (converted).
[7] abbreviates: cloned human receptor, LM(tk-) cell membranes, mean, read-out: PKi alpha-1 1c (converted).
[8] abbreviates: [3H]rauwolscine, human receptor, LM(tk-) cell lysates, mean, read-out: PKi alpha-2 2b (converted).
[9] abbreviates: cloned human receptor in LM(tk-) cell membranes, SEM and n in lines below.
The mark [10] stands for this setting: PKi alpha-2 2b, [3H]rauwolscine, human α2B receptor, LM(tk-) cells.
Where [11] appears, read: PKi alpha-1 1b, cloned human α1B receptor, LM(tk-) cell membranes.
The mark [12] stands for this setting: PKi alpha-1 1c, cloned human α1C receptor, LM(tk-) cell membranes.

Counter-ions that a name gives are not always drawn. Like-named read-outs stand apart in the source and are kept apart here.

As to `CCC1=C(C(N)=O)C(c2ccc([N+](=O)[O-])cc2)C(C(=O)NCCCN2CCN(c3ccccc3)CC2)=C(CC)N1` (stereo not drawn) [Example 104, 5-Carboxamido-2,6-diethyl-1,4-dihydro-4-(4-nitrophenyl)-3-{N-[3-(4-phenylpiperazin-1-yl)propyl]}carboxamido-pyridine hydrochloride hydrate], the Ki at α2B receptor ([3H]rauwolscine, human α2B receptor, LM(tk−) cells, read-out: pKi alpha-2 2b (converted)) was 56.2 nM; in test [1] (cloned human α1B receptor, LM(tk−) cell membranes, read-out: pKi alpha-1 1b (converted)), 34.7 nM; in test [2] (cloned human α1C receptor, LM(tk−) cell membranes, read-out: pKi alpha-1 1c (converted)), 3.24 nM.

As to `COC(=O)C1(c2ccccc2)CCN(CCCNC(=O)C2=C(COCCN)NC(C)=C(C(C)=O)C2c2ccc(F)cc2)CC1` (stereo not drawn) [Example 245, 5-Acetyl-2-((2-aminoethyl)oxy)methyl-4-(4-fluoro)phenyl-1,4-dihydro-3-(N-3-(4-methoxycarbonyl-4-phenylpiperidin-1-yl)propyl)carboxamido-6-methylpyridine], the Ki was 2750 nM at α2B receptor ([3H]rauwolscine, human α2B receptor, LM(tk-) cells, read-out: PKi alpha-2 2b (converted)); 355 nM in test [1] (cloned human α1B receptor, LM(tk-) cell membranes, read-out: PKi alpha-1 1b (converted)); 5.01 nM in test [2] (cloned human α1C receptor, LM(tk-) cell membranes, read-out: PKi alpha-1 1c (converted)).

Take `COc1cc2c(cc1OC)CN(CCCNC(=O)C1=C(C)NC(C)=C(C(N)=O)C1c1ccc([N+](=O)[O-])cc1)CC2` (stereo not drawn) [Example 58, 5-Carboxamido-1,4-dihydro-3-{N-[3-(1,2,3,4-tetrahydro-6,7-dimethoxyisoquinolin-2-yl)propyl]}carboxamido-2,6-dimethyl-4-(4-nitrophenyl)pyridine hydrochloride]: the Ki was 1450 nM at α2B receptor (setting [3]), 2290 nM in test [1] (setting [4]) and 331 nM in test [2] (setting [5]).

Turning to `COC(=O)C1=C(C)NC(CCCCN)=C(C(=O)NCCCN2CCC(c3ccccc3)(c3ccccc3)CC2)C1c1ccc([N+](=O)[O-])cc1` (stereo not drawn) [Example 170, 2-(4-Aminobutyl)-1,4-dihydro-5-methoxycarbonyl-6-methyl-4-(4-nitrophenyl)-3-{N-[3-(4,4-diphenylpiperidin-1-yl)propyl]}carboxamidopyridine], the Ki was 8710 nM at α2B receptor (PKi alpha-2 2b), 105 nM in test [1] (setting [6]) and 1.26 nM in test [2] (setting [7]).

With `CC1=C(C(N)=O)C(c2ccc([N+](=O)[O-])cc2)C(C(=O)NCCCN2CCC(C(=O)O)(c3ccccc3)CC2)=C(C)N1` (stereo not drawn) [Example 210, 5-Carboxamido-3-{N-[3-(4-carboxy-4-phenylpiperidin-1-yl)propyl]}carboxamido-1,4-dihydro-2,6-dimethyl-4-(4-nitrophenyl)pyridine], the Ki was 23400 nM at α2B receptor (PKi alpha-2 2b), 44700 nM in test [1] (setting [6]) and 93.3 nM in test [2] (setting [7]).

Take `CCOC(=O)C1(c2ccccc2)CCN(CCCNC(=O)C2=C(COCCN)NC(CC)=C(C(=O)NC)C2c2ccc([N+](=O)[O-])cc2)CC1` (stereo not drawn) [Example 194, 2-[(2-Aminoethoxy)methyl]-3-{N-[3-(4-ethoxycarbonyl-4-phenylpiperidin-1-yl)propyl]}carboxamido-1,4-dihydro-6-ethyl-5-(N-methyl) carboxamido-4-(4-nitrophenyl) pyridine]: the Ki is 5750 nM on α2B receptor (setting [8]), 2690 nM in test [1] (setting [6]) and 3.72 nM in test [2] (setting [7]).

In the case of `CCC1=C(C(=O)NC)C(c2ccc([N+](=O)[O-])cc2)C(C(=O)NCCCN2CCC(C(=O)OC)(c3ccccc3)CC2)=C(COCCN)N1` (stereo not drawn) [Example 229, 2-((2-Aminoethyl)oxy)methyl-6-ethyl-1,4-dihydro-3-(N-(3-(4-methoxycarbonyl-4-phenylpiperidin-1-yl)propyl))carbo xamido-5-N-methylcarboxamido-4-(4-nitro)phenylpyridine], the Ki on α2B receptor (setting [8]) is 5370 nM; in test [1] (setting [6]), 1380 nM; in test [2] (setting [7]), 7.08 nM.

Regarding `CC(=O)C1=C(C)NC(C)=C(C(=O)NCCCN2CCC(c3ccccc3)(c3ccccc3)CC2)C1c1ccc([N+](=O)[O-])cc1` (stereo not drawn) [Example 47, 5-Acetyl-1,4-dihydro-2,6-dimethyl-4-(4-nitrophenyl)-3-{N-[3-(4,4-diphenylpiperidin-1-yl)propyl]}carboxamidopyridine], the “pKi alpha-2 2b” value at α2B receptor ([3H]rauwolscine, LM(tk-) cell line L-NGC-α2B, SEM and n in lines below) was 6.36. For the same molecule, the “pKi alpha-1 1b” value in test [1] (setting [9]) was determined as 6.58. For the same molecule, the “pKi alpha-1 1c” value in test [2] (setting [9]) was found to be 8.93.

On to `CC(=O)C1=C(C)NC(COCCN)=C(C(=O)NCCCN2CCC(c3ccccc3)(c3ccccc3)CC2)C1c1ccc(F)cc1` (stereo not drawn) [Example 242, 5-Acetyl-2-((2-aminoethyl)oxy)methyl-4-(4-fluoro)phenyl-1,4-dihydro-6-methyl-3-(N-(3-(4,4-diphenylpiperidin-1-yl)propyl))carboxamidopyridine], for which the Ki at α2B receptor (setting [10]) was 933 nM; in test [1] (setting [11]), 83.2 nM; in test [2] (setting [12]) it was 3.98 nM.

As to `CCC1=C(C(N)=O)C(c2ccc([N+](=O)[O-])cc2)C(C(=O)NCCCN2CCC(c3ccccc3)(c3ccccc3)CC2)=C(CCCCN)N1` (stereo not drawn) [Example 171, 2-(4-Aminobutyl)-5-carboxamido-6-ethyl-1,4-dihydro-4-(4-nitrophenyl)-3-{N-[3-(4,4-diphenylpiperidin-1-yl)propyl]}carboxamidopyridine], the Ki at α2B receptor (PKi alpha-2 2b, [3H]rauwolscine, human receptor, LM(tk-) cell lysates, mean) was 2000 nM; in test [1] (PKi alpha-1 1b, cloned human receptor, LM(tk-) cell membranes, mean) it was 617 nM; in test [2] (PKi alpha-1 1c, cloned human receptor, LM(tk-) cell membranes, mean), 1.74 nM.

Consider `CCC1=C(C(=O)NCCCN2CCC(c3ccccc3)CC2)C(c2ccc([N+](=O)[O-])cc2)C(C(=O)OC)=C(C)N1` (stereo not drawn) [Example 74, 2-Ethyl-1,4-dihydro-5-methoxycarbonyl-6-methyl-4-(4-nitro)phenyl-3-(N-(3-(4-phenylpiperidin-1-yl)propyl)) carboxamidopyridine hydrochloride hydrate], for which the Ki at α2B receptor (setting [3]) is 89.1 nM; in test [1] (setting [4]), 19.1 nM; in test [2] (setting [5]), 0.501 nM.

For `CCC1=C(C(=O)NCCOC)C(c2ccc([N+](=O)[O-])cc2)C(C(=O)NCCCN2CCC(c3ccccc3)(c3ccccc3)CC2)=C(COC)N1` (stereo not drawn) [Example 247, 6-Ethyl-1,4-dihydro-5-N-((2-methoxy)ethyl)carboxamido-2-(methyloxy)methyl-4-(4-nitro)phenyl-3-(N-(3-(4,4-diphenylpiperidin-1-yl)propyl)) carboxamidopyridine], the figures for the Ki (at α2B receptor (setting [10]); in test [1] (setting [11]); in test [2] (setting [12])) were 479 nM, 912 nM and 24.5 nM, respectively.
